{"source": "PubChem BioAssay AID2060599", "about": "(Molecular Pharmacology Branch, DTP, NCI, 2025)", "tested_on": "817829-284-R-J1-PDC complex spheroids, viability", "experiment": "Anticancer human tumor 817829-284-R-J1-PDC patient-derived colon adenocarcinoma cell line growth inhibition [CLK]", "details": "for IC50: curve of first compound; for viability, T/C: stronger effect = lower value", "summary_of_the_method": "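Patient-derived tumor cells grown as complex spheroids with HUVEC endothelial cells and mesenchymal stem cells, treated with drug combinations. Concentrations descend in half-log steps from near clinical Cmax, or from 10 microM if Cmax unknown.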"}
{"compound": "CCN1CCN(Cc2ccc(Nc3ncc(F)c(-c4cc(F)c5nc(C)n(C(C)C)c5c4)n3)nc2)CC1", "note": "+ CN1CCN(c2cc(C(=O)Nc3cc4cc(-c5cnn(C)c5)ccc4cn3)ccn2)CC1;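 further: spheroids exposed to the agents for seven days before readout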", "values": [{"measurement": "IC50", "setting": "second compound 0.0316 µM", "result": 21.1, "unit": "nM"}, {"measurement": "IC50", "setting": "second compound 0.1 µM", "result": "< 3.16", "unit": "nM"}, {"measurement": "IC50", "setting": "second compound 0.316 µM", "result": "< 3.16", "unit": "nM"}, {"measurement": "IC50", "setting": "second compound 1 µM", "result": "< 3.16", "unit": "nM"}, {"measurement": "IC50", "setting": "second compound 3.16 µM", "result": "< 3.16", "unit": "nM"}, {"measurement": "IC50", "setting": "second compound 10 µM", "result": "< 3.16", "unit": "nM"}, {"measurement": "viability, T/C", "setting": "second compound 0.0316 µM, first compound 0.00316 µM", "result": 49.6, "unit": "%"}, {"measurement": "viability, T/C", "setting": "second compound 0.0316 µM, first compound 0.01 µM", "result": 64.4, "unit": "%"}, {"measurement": "viability, T/C", "setting": "second compound 0.0316 µM, first compound 0.0316 µM", "result": 46.2, "unit": "%"}, {"measurement": "viability, T/C", "setting": "second compound 0.0316 µM, first compound 0.1 µM", "result": 36.6, "unit": "%"}, {"measurement": "viability, T/C", "setting": "second compound 0.0316 µM, first compound 0.316 µM", "result": 36.9, "unit": "%"}, {"measurement": "viability, T/C", "setting": "second compound 0.0316 µM, first compound 1 µM", "result": 29.2, "unit": "%"}, {"measurement": "viability, T/C", "setting": "second compound 0.1 µM, first compound 0.00316 µM", "result": 17.4, "unit": "%"}, {"measurement": "viability, T/C", "setting": "second compound 0.1 µM, first compound 0.01 µM", "result": 16.2, "unit": "%"}, {"measurement": "viability, T/C", "setting": "second compound 0.1 µM, first compound 0.0316 µM", "result": 15.4, "unit": "%"}, {"measurement": "viability, T/C", "setting": "second compound 0.1 µM, first compound 0.1 µM", "result": 20.7, "unit": "%"}, {"measurement": "viability, T/C", "setting": "second compound 0.1 µM, first compound 0.316 µM", "result": 18.7, "unit": "%"}, {"measurement": "viability, T/C", "setting": "second compound 0.1 µM, first compound 1 µM", "result": 11.8, "unit": "%"}, {"measurement": "viability, T/C", "setting": "second compound 0.316 µM, first compound 0.00316 µM", "result": 1.34, "unit": "%"}, {"measurement": "viability, T/C", "setting": "second compound 0.316 µM, first compound 0.01 µM", "result": 1.6, "unit": "%"}, {"measurement": "viability, T/C", "setting": "second compound 0.316 µM, first compound 0.0316 µM", "result": 1.6, "unit": "%"}, {"measurement": "viability, T/C", "setting": "second compound 0.316 µM, first compound 0.1 µM", "result": 1.6, "unit": "%"}, {"measurement": "viability, T/C", "setting": "second compound 0.316 µM, first compound 0.316 µM", "result": 2.31, "unit": "%"}, {"measurement": "viability, T/C", "setting": "second compound 0.316 µM, first compound 1 µM", "result": 0.61, "unit": "%"}, {"measurement": "viability, T/C", "setting": "second compound 1 µM, first compound 0.00316 µM", "result": 0.17, "unit": "%"}, {"measurement": "viability, T/C", "setting": "second compound 1 µM, first compound 0.01 µM", "result": 0.12, "unit": "%"}, {"measurement": "viability, T/C", "setting": "second compound 1 µM, first compound 0.0316 µM", "result": 0.08, "unit": "%"}, {"measurement": "viability, T/C", "setting": "second compound 1 µM, first compound 0.1 µM", "result": 0.08, "unit": "%"}, {"measurement": "viability, T/C", "setting": "second compound 1 µM, first compound 0.316 µM", "result": 0.1, "unit": "%"}, {"measurement": "viability, T/C", "setting": "second compound 1 µM, first compound 1 µM", "result": 0.19, "unit": "%"}, {"measurement": "viability, T/C", "setting": "second compound 3.16 µM, first compound 0.00316 µM", "result": 0.13, "unit": "%"}, {"measurement": "viability, T/C", "setting": "second compound 3.16 µM, first compound 0.01 µM", "result": 0.14, "unit": "%"}, {"measurement": "viability, T/C", "setting": "second compound 3.16 µM, first compound 0.0316 µM", "result": 0.12, "unit": "%"}, {"measurement": "viability, T/C", "setting": "second compound 3.16 µM, first compound 0.1 µM", "result": 0.15, "unit": "%"}, {"measurement": "viability, T/C", "setting": "second compound 3.16 µM, first compound 0.316 µM", "result": 0.12, "unit": "%"}, {"measurement": "viability, T/C", "setting": "second compound 3.16 µM, first compound 1 µM", "result": 0.1, "unit": "%"}, {"measurement": "viability, T/C", "setting": "second compound 10 µM, first compound 0.00316 µM", "result": 0.09, "unit": "%"}, {"measurement": "viability, T/C", "setting": "second compound 10 µM, first compound 0.01 µM", "result": 0.1, "unit": "%"}, {"measurement": "viability, T/C", "setting": "second compound 10 µM, first compound 0.0316 µM", "result": 0.08, "unit": "%"}, {"measurement": "viability, T/C", "setting": "second compound 10 µM, first compound 0.1 µM", "result": 0.09, "unit": "%"}, {"measurement": "viability, T/C", "setting": "second compound 10 µM, first compound 0.316 µM", "result": 0.11, "unit": "%"}, {"measurement": "viability, T/C", "setting": "second compound 10 µM, first compound 1 µM", "result": 0.08, "unit": "%"}]}
